# Test results taken from ChEMBL document CHEMBL1641368, “NF kappa B inhibitors and antitrypanosomal metabolites from endophytic fungus Penicillium sp. isolated from Limonium tubiflorum” (Bioorg Med Chem, 2011).
# Columns and labels:
# [1] = test system: Trypanosoma brucei brucei; test: Antitrypanosomal activity against Trypanosoma brucei brucei S427 after 48 hrs by alamar blue assay; assay type: functional; conditions: S427, 48 h
# K562 = test: Cytotoxicity against human K562 cells after 24 hrs by MTT assay; assay type: functional, cell-based
# U-937 = test: Cytotoxicity against human U937 cells after 24 hrs by MTT assay; assay type: functional, cell-based; conditions: U-937, 24 h
# Jurkat = test: Cytotoxicity against human Jurkat cells after 24 hrs by MTT assay; assay type: functional, cell-based
# [2] = Inhibition of NF-kappaB activity in TNFalpha-stimulated human K562 cells after 24 hrs by luciferase reporter gene assay; assay type: cell-based; conditions: K562, 24 h
# [3] = Homo sapiens, K562, 24 h, read-out: IC50
MIC [1] [µM],IC50 [2] [µM],Compound,IC50 (K562; [3]) [µM],IC50 (U-937) [µM],IC50 (Jurkat) [µM],IC50 (K562; k562)
> 100,–,C[C@H]1CCC[C@H]2O[C@@H]2C(=O)c2c(O)cc(O)cc2CC(=O)O1,–,–,–,–
> 100,–,C[C@H]1CCC/C=C\C(=O)c2c(O)cc(O)cc2CC(=O)O1,–,–,–,–
18.7,16,COc1cc(CO)cc2c1C(=O)c1c(O)cc(O)c(Cl)c1C2=O,40.1,22,28.4,–
78.6,1.6,COc1cc(C)cc2c1C(=O)c1c(O)cc(O)c(Cl)c1C2=O,24.8,7.6,13.3,–
9.75,–,COc1cc(C)cc2c1C(=O)c1c(O)cc(O)c(Cl)c1C2O (configuration not stated),–,–,–,–
> 100,–,Cc1cc(=O)c2c(C)cc(O)cc2o1,–,–,–,–
11,> 100,COc1cc(C)cc2c1C(=O)c1c(O)cc(O)cc1C2=O [1-O-METHYLEMODIN],–,88.6,> 100,Not Active
14.8,–,C=C1CC[C@@H]2C(C)(C)CCC[C@@]2(C)[C@@H]1CC/C(C)=C/Cn1c[n+](C)c2ncnc(N)c21 [AGELASINE D],–,–,–,–
41.7,> 100,COc1cc(CO)cc2c1C(=O)c1c(O)cc(O)cc1C2=O [CARVIOLIN],–,> 100,> 100,Not Active
> 100,5.6,C[C@H]1CCC/C=C/C(=O)c2c(O)cc(O)cc2CC(=O)O1 [DEHYDROCURVULARIN],37,2.5,5.5,–
> 100,46,COc1cc(C)cc2c1C(=O)c1c(O)cc(O)c(Cl)c1[C@H]2[C@H]1c2cc(C)cc(OC)c2C(=O)c2c(O)cc(O)c(Cl)c21 [NEOBULGARONE E],> 100,47.6,82.4,–
> 100,> 100,COc1cc(C)cc2c1C(=O)c1c(O)cc(O)c(Cl)c1[C@H]2[C@H]1c2cc(CO)cc(OC)c2C(=O)c2c(O)cc(O)c(Cl)c21 [NEOBULGARONE G],–,> 100,> 100,Not Active
> 100,–,C[S+]([O-])c1cccc2ccc(=O)oc12 (configuration not stated) [SULFIMARINE],–,–,–,–
0.06,–,Cc1ccc(C(=O)Nc2ccc(S(=O)(=O)O)c3cc(S(=O)(=O)O)cc(S(=O)(=O)O)c23)cc1NC(=O)c1cccc(NC(=O)Nc2cccc(C(=O)Nc3cc(C(=O)Nc4ccc(S(=O)(=O)O)c5cc(S(=O)(=O)O)cc(S(=O)(=O)O)c45)ccc3C)c2)c1 [SURAMIN],–,–,–,–
6.29,47.8,C/C=C/C=C/C(=O)C1=C(O)[C@@]2(C)[C@H]3C(C(=O)/C=C/C=C/C)=C(O)[C@@]4(C)[C@@H]1[C@]1(C)O[C@@]4(O)[C@@]3(C)O[C@@]12O [TRICHODIMEROL],74.4,16.5,28.5,–

Compound,MIC [1] [µM],IC50 [2] [µM],IC50 (K562; [3]) [µM],IC50 (U-937) [µM],IC50 (Jurkat) [µM],IC50 (K562; k562)
CO[C@H]1CCC[C@H](C)OC(=O)Cc2cc(O)cc(O)c2C(=O)C1 [11ALPHA-METHOXYCURVULARIN],9.68,10.1,41.1,4.6,2.3,–
CO[C@@H]1CCC[C@H](C)OC(=O)Cc2cc(O)cc(O)c2C(=O)C1 [11BETA-METHOXYCURVULARIN],4.96,4.7,12.4,1.8,3.9,–
